Test results from patent US6242425A, “Quinolinone glycoside, production process, and anti-allergic agent” (Dainippon Ink and Chemicals, Inc., priority 1998, dated 2001).

Tests used:
[1] = test system: homologous passive cutaneous anaphylaxis (PCA) reaction in rats; experiment: Effect on homologous passive cutaneous anaphylaxis (PCA) reaction in rats; format: in vivo, rat (male wistar rats); conditions: vs vehicle control
Method: Effect on homologous passive cutaneous anaphylaxis (PCA) reaction in rats
This experimental animal model is caused by immediate type allergic reaction, namely, antigen-antibody reaction. In the following, the method of this pharmacological test will be explained.
Method: Male wistar rats (9 weeks old) were intradermally administered 0.05 ml of anti-serum against dinitrophenylated ascaris (DNP-As) into two sites on the shaved dorsal skin. 48 hours later, glycosyloxyquinolinone derivatives (test compounds) suspended in 0.5% methylcellulose (MC) were given i.v. at a dose of 0.5 mg/kg to the animals. 1 hour after administration of Test compounds, the animals were induced anaphylaxis by injection of saline (1 ml) dissolving 1 mg of trinitrophenylated ascaris (TNP-As) and 5 mg of Evans Blue into the tail vein of the animals. 30 minutes after induction of anaphylaxis, animals were anesthetized by ether and killed by bleeding, and were flayed dorsal skin. The leakage of dye was assessed by measuring the diameter (mean of shortest and longest diameter) of the blue spot on the inside surface of dorsal skin. As vehicle control group, only 0.5% MC solution was administered orally, and as positive control group, Tranilast suspended in 0.5% MC were administered orally at a dose of 100 mg/kg to the animals with the same method as the test compounds groups. Each experimental group consisted of 5 rats.
In the conditions of this experiment, it was considered that the compound, which inhibited PCA reaction by over forty (40) percent against that in vehicle control group, was evidently effective for immediate type allergy.
(§1) Inhibition (%)=(A-B)/A×100
A: leakage of dye in vehicle control group
B: leakage of dye in test compound group or positive control group

[2] = test system: immediate type asthmatic response; experiment: Effect on experimental immediate type asthma model in guinea pigs (airway resistance); format: in vivo, guinea pig (male hartley guinea pigs); conditions: airway resistance 1 minute after challenge
From the text: (§2) Effect on experimental immediate and delayed type asthma model in guinea pigs
(§3) The asthma is typical allergic disease and we carried out this pharmacological test by experimental asthmatic model in guinea pigs in order to confirm that the compounds of the present invention, compound 14, 16, 20, 26 and 32, suppress immediate and delayed type asthmatic response. In the following, the method of the pharmacological test will be explained.
(§4) Method: Male hartley guinea pigs were sensitized by exposured aerosolized ovalbumine (OVA) (1% in saline) for 10 minutes per a day at eight times. The aerosol was generated by an ultrasonic nebulizer (NE-U12, Omron inc.). One week after final sensitization, the animals were challenged with inhalation of OVA (2% in saline) for 5 minutes. The animals were pretreated with metyrapone (10 mg/kg, i.v.) at 1 and 4 hours before the challenge, and pyrilamine (10 mg/kg, i.p.) at 30 minutes before the challenge. airway resistance in the conscious animals were measured for 1 minute with PULMOS-1 (made in Medical Interface Project Station Inc.) at 1 minute, 2, 4, 5, 6, 7, 8 and 23 to 24 hours after the challenge. Compound 14, 16, 20, 26 and 32 (test compound) suspended in 0.5% methylcellulose (MC) solution were given i.v. at doses of 0.2 and 0.5 mg/kg 1 hour before and 3 hours after the challenge. As a positive control group, Prednisolone was given orally at a dose of 10 mg/kg 2 hours and 16 hours before the challenge. As vehicle control group, only 0.5% MC solution was given orally.
(§5) The evaluation of the effect of the compounds on immediate and delayed type asthmatic response was undertaken with percentage of change in airway resistance 1 minute after the challenge and the area under the response curve for percentage of change in airway resistance between 4 and 8 hours after the challenge, respectively.
(§6) The inhibition (%) of the compounds for immediate and delayed type asthmatic response was calculated according to equation 2 and the result was shown in table 2. Each experimental group consisted of 8 guinea pigs.
as §1
(§7) A: percentage of change in airway resistance in vehicle control group
(§8) B: percentage of change in airway resistance in test compound group or positive control group

[3] = test system: delayed type asthmatic response; experiment: Effect on experimental delayed type asthma model in guinea pigs (airway resistance); format: in vivo, guinea pig (male hartley guinea pigs); conditions: AUC of airway resistance change 4-8 hours after challenge
From the text: as §2, §3, §4, §5, §6, §1, §7, §8

[4] = 0.5 mg/kg i.v., 1 hour before challenge
[5] = 0.2 mg/kg i.v., 1 hour before and 3 hours after challenge
[6] = 0.5 mg/kg i.v., 1 hour before and 3 hours after challenge
[7] = positive control, 10 mg/kg orally, 2 and 16 hours before challenge

| Compound | inhibition (%) of PCA reaction [1, 4] | immediate type asthma inhibition % [2, 5] | immediate type asthma inhibition % [2, 6] | delayed type asthma inhibition (%) [3, 5] | delayed type asthma inhibition (%) [3, 6] | other results |
| --- | --- | --- | --- | --- | --- | --- |
| CCCCCCCCOc1c(O)c2ccc(NC(=O)/C=C/c3cc(OC)c(O[C@@H]4O[C@H](CO)[C@H](O)[C@H](O)[C@H]4O)c(OC)c3)cc2n(C)c1=O [Compound 27, 7-[3,5-dimethoxy-4-(β-D-galactopyranosyloxy)cinnamoyl]amino-3-octyloxy-4-hydroxy-1-methyl-2(1H)-quinolinone] | 46% |  |  |  |  |  |
| CCCCCCCCOc1c(O[C@H]2O[C@H](CO)[C@@H](O)[C@H](O)[C@@H]2O)c2ccc(NC(=O)/C=C/c3cc(OC)c(O[C@H]4O[C@H](CO)[C@@H](O)[C@H](O)[C@@H]4O)c(OC)c3)cc2n(C)c1=O [Compound 32, 7-[3,5-dimethoxy-4-(α-D-mannopyranosyloxy)cinnamoyl]amino-3-octyloxy-4-(α-D-mannopyranosyloxy)-1-methyl-2(1H)-quinolinone] | 45% | 26% | 34% | 49% | 57% |  |
| C[C@]12C=CC(=O)C=C1CC[C@@H]1[C@@H]2[C@@H](O)C[C@@]2(C)[C@H]1CC[C@]2(O)C(=O)CO [Prednisolone, reference compound] |  |  |  |  |  | immediate type asthma inhibition % [2, 7]: 27%; delayed type asthma inhibition (%) [3, 7]: 69% |
| CCCCCCCCOc1c(O[C@H]2O[C@H](CO)[C@@H](O)[C@H](O)[C@@H]2O)c2ccc(NC(=O)/C=C/c3cc(OC)c(O)c(OC)c3)cc2n(C)c1=O [Compound 34, 7-(3,5-dimethoxy-4-hydroxycinnamoyl)amino-3-octyloxy-4-(α-D-mannopyranosyloxy)-1-methyl-2(1H)-quinolinone] | 42% |  |  |  |  |  |
| CCCCCCCCOc1c(O[C@@H]2O[C@H](C(=O)O)[C@@H](O)[C@H](O)[C@H]2O)c2ccc(NC(=O)/C=C/c3cc(OC)c(O)c(OC)c3)cc2n(C)c1=O [Compound 16, 7-(3,5-dimethoxy-4-hydroxycinnamoyl)amino-3-octyloxy-4-(β-D-glcuropyranosyloxy)-1-methyl-2(1H)-quinolinone] | 41% | 22% | 26% | 42% | 51% |  |
| CCCCCCCCOc1c(O[C@@H]2O[C@H](C(=O)O)[C@@H](O)[C@H](O)[C@H]2O)c2ccc(NC(=O)/C=C/c3cc(OC)c(O[C@@H]4O[C@H](C(=O)O)[C@@H](O)[C@H](O)[C@H]4O)c(OC)c3)cc2n(C)c1=O [Compound 14] | 54% | 29% | 37% | 64% | 73% |  |
| CCCCCCCCOc1c(O)c2ccc(NC(=O)/C=C/c3cc(OC)c(O[C@@H]4O[C@H](C(=O)O)[C@@H](O)[C@H](O)[C@H]4O)c(OC)c3)cc2n(C)c1=O [Compound 15, 7-[3,5-dimethoxy-4-(β-D-glucuropyranosyloxy)cinnamoyl]amino-3-octyloxy-4-hydroxy-1-methyl-2(1H)-quinolinone] | 42% |  |  |  |  |  |
| CCCCCCCCOc1c(O)c2ccc(NC(=O)/C=C/c3cc(OC)c(O[C@H]4O[C@H](CO)[C@@H](O)[C@H](O)[C@@H]4O)c(OC)c3)cc2n(C)c1=O [Compound 33, 7-[3,5-dimethoxy-4-(α-D-mannopyranosyloxy)cinnamoyl]amino-3-octyloxy-4-hydroxy-1-methyl-2(1H)-quinolinone] | 40% |  |  |  |  |  |
| CCCCCCCCOc1c(O[C@@H]2O[C@H](CO)[C@@H](O)[C@H](O)[C@H]2O)c2ccc(NC(=O)/C=C/c3cc(OC)c(O[C@@H]4O[C@H](CO)[C@@H](O)[C@H](O)[C@H]4O)c(OC)c3)cc2n(C)c1=O [Compound 20, 7-[3,5-dimethoxy-4-(β-D-glucopyranosyloxy)cinnamoyl]amino-3-octyloxy-4-(β-D-glucopyranosyloxy)-1-methyl-2(1H)-quinolinone] | 49% | 27% | 38% | 57% | 61% |  |
| CCCCCCCCOc1c(O)c2ccc(NC(=O)/C=C/c3cc(OC)c(O[C@@H]4O[C@H](CO)[C@@H](O)[C@H](O)[C@H]4O)c(OC)c3)cc2n(C)c1=O [Compound 21, 7-[3,5-dimethoxy-4-(β-D-glucopyranosyloxy)cinnamoyl]amino-3-octyloxy-4-hydroxy-1-methyl-2(1H)-quinolinone] | 46% |  |  |  |  |  |
| CCCCCCCCOc1c(O[C@@H]2O[C@H](CO)[C@@H](O)[C@H](O)[C@H]2O)c2ccc(NC(=O)/C=C/c3cc(OC)c(O)c(OC)c3)cc2n(C)c1=O [Compound 22, 7-(3,5-dimethoxy-4-hydroxycinnamoyl)amino-3-octyloxy-4-(β-D-glucopyranosyloxy)-1-methyl-2(1H)-quinolinone] | 42% |  |  |  |  |  |
| CCCCCCCCOc1c(O[C@@H]2O[C@H](CO)[C@H](O)[C@H](O)[C@H]2O)c2ccc(NC(=O)/C=C/c3cc(OC)c(O)c(OC)c3)cc2n(C)c1=O [Compound 28, 7-(3,5-dimethoxy-4-hydroxycinnamoyl)amino-3-octyloxy-4-(β-D-galactopyranosyloxy)-1-methyl-2(1H)-quinolinone] | 43% |  |  |  |  |  |
| COc1ccc(/C=C/C(=O)Nc2ccccc2C(=O)O)cc1OC [Tranilast, reference compound] |  |  |  |  |  | inhibition (%) of PCA reaction ([1]; positive control, 100 mg/kg orally): 52% |
| CCCCCCCCOc1c(O[C@@H]2O[C@H](CO)[C@H](O)[C@H](O)[C@H]2O)c2ccc(NC(=O)/C=C/c3cc(OC)c(O[C@@H]4O[C@H](CO)[C@H](O)[C@H](O)[C@H]4O)c(OC)c3)cc2n(C)c1=O [Compound 26, 7-[3,5-dimethoxy-4-(β-D-galactopyranosyloxy)cinnamoyl]amino-3-octyloxy-4-(β-D-galactopyranosyloxy)-1-methyl-2(1H)-quinolinone] | 50% | 25% | 37% | 52% | 63% |  |
